In USRE37781E1, “Substituted cyclic carbonyls and derivatives thereof useful as retroviral protease inhibitors” (DuPont Pharmaceuticals Company, priority 1991, dated 2002):
Converted amounts (≈) assume the structure as drawn. Read-outs that look alike come from different tables or passages of the source.

How the values were obtained:
[1] = molecular target: single-chain tethered dimer of HIV protease (Human immunodeficiency virus 1, UniProt P04585); experiment: biochemical; type: biochemical; design: fused on or other part: A second copy of the same protease unit is joined to the first by a short peptide tether, giving one polypeptide; conditions: read-out: HPLC Ki; Table 1d, lower part
Experimental: HIV Protease Inhibition Assay—HPLC Method
Active protease was prepared as described therein by extraction with 67% acetic acid, dilution 33-fold with water, dialysis against water and then against a “refolding buffer” consisting of 20 mM MES, 1 mM dithiothreitol and 10% glycerol. Protease was stored as a stock preparation at 10 uM in refolding buffer.
Substrate: Peptide of sequence: aminobenzoyl-Ala-Thr-His-Gln-Val-Tyr-Phe(NO2)-Val-Arg-Lys-Ala containing p-nitrophenylalanine, was prepared by solid phase synthesis as previously described Cheng et al., op.cit. Stock solutions of 2 mM substrate were prepared in DMSO.
Inhibitory compounds were dissolved in sufficient DMSO to make 3 mM stock solutions. All further dilutions were prepared in “assay buffer”: 1M NaCl, 50 mM MES, pH 5.5, 1 mM EDTA, 1 mM DTT, […] glycerol.
Enzyme reaction: In a 2 ml screw-cap centrifuge tube were added 50 ul protease (final concentration 0.25 nM) and 0.1 ml inhibitory compound (final concentration […]). After 15 min preincubation at room temperature, the reaction was started with the addition of 0.05 ml substrate (final concentration 5 uM). Incubation was carried out at 30 C. for 1 hr. The reaction was stopped with 1 ml 0.1M ammonium hydroxide.
HPLC measurement of product formation: The product (aminobenzoyl-Ala-Thr-His-Gln-Val-Tyr) was separated from substrate on a Pharmacia MonoQ anion exchange column. The injection volume was 0.2 ml. The mobile phases were: A (20 mM trisHCl, pH 9.0, 0.02% sodium Azide, 10% acetonitrile), B (20 mM tris HCl, pH 9.0, 0.02% sodium azide, 0.5M ammonium formate, 10% acetonitrile). The mobile phases were pumped at 1 ml/min, with a gradient from 0 to 30% B in 5 min, 100% B for 4 min to wash the column, and a re-equilibration for 4 min. The retention time of the product was 3.6 min. Detection with a Shimadzu model RF535 fluorescence monitor was at 330 nm (excitation) and 430 (emission).

HIV-1 (RF) in MT-2 cells = experiment: microbe, parasite or virus in culture; type: cell-based
Experimental: DNA Plasmids and in vitro RNA transcripts:
Plasmid pDAB 72 containing both gag and pol sequences of BH10 (bp 113-1816) cloned into PTZ 19R was prepared according to Erickson-Viitanen et al. AIDS Research and Human Retroviruses 1989, 5, 577. The plasmid was linearized with Bam HI prior to the generation of in vitro RNA transcripts using the Riboprobe Gemini system II kit (Promega) with T7 RNA polymerase. Synthesized RNA was purified by treatment with RNase free DNAse (Promega), phenol-chloroform extraction, and ethanol precipitation. RNA transcripts were dissolved in water, and stored at −70° C. The concentration of RNA was determined from the A260.
Biotinylated capture probes were purified by HPLC after synthesis on an Applied Biosystems (Foster City, Calif.) DNA synthesizer by addition of biotin to the 5′ terminal end of the oligonucleotide, using the biotin-phosphoramidite reagent of Cocuzza, Tet. Lett. 1989, 30, 6287. The gag biotinylated capture probe (5-biotin-[…] 3′) was complementary to nucleotides 889-912 of HXB2 and the pol biotinylated capture probe (5′-biotin-[…] 3′) was complementary to nucleotides 2374-2395 of HXB2. Alkaline phosphatase conjugated oligonucleotides used as reporter probes were prepared by Syngene (San Diego, Calif.). The pol reporter probe (5′ […] 3′) was complementary to nucleotides 2403-2425 of HXB2. The gag reporter probe (5′ […] 3′) was complementary to nucleotides 950-973 of HXB2. All nucleotide positions are those of the GenBank Genetic Sequence Data Bank as accessed through the Genetics Computer Group Sequence Analysis Software Package (Devereau Nucleic Acids Research 1984, 12, 387). The reporter probes were prepared as 0.5μM stocks in 2× SSC (0.3M NaCl, 0.03M sodium citrate), 0.05M Tris pH 8.8, 1 mg/mL BSA. The biotinylated capture probes were prepared as 10 μM stocks in water.
Streptavidin coated plates:
Nunc-immunomodule microtiter plate strips were coated by addition of 200 μL of streptavidin (30 ug/mL, Scripps, La Jolla, Calif.) in freshly prepared 10 mM sodium carbonate (pH 9.6). Plates were incubated overnight at 4° C. Streptavidin solution was aspirated from the wells and a blocking buffer composed of phosphate buffered saline (PBS), 20 mg/mL bovine serum albumin (crystalline, nuclease and protease free, Calbiochem) and 100 mg/mL lactose (Sigma) was added to the plates for 3 hrs at room temperature. Blocking buffer was removed from the wells, which were allowed to dry overnight at room temperature and subsequently stored at 4° C. in zip lock bags with desiccant. For the majority of the compound evaluation experiments, streptavidin coated plates were obtained from Du Pont Biotechnology Systems (Boston, Mass.).
MT-2, CEM, and H9 cells were maintained in RPMI 1640 supplemented with 5% fetal calf serum (FCS), 2 mM L-glutamine and 50 μg/mL gentamycin, all from Gibco. Laboratory strains of HIV-1 (RF, MN and IIIB) were propagated in H9 cells in the same medium. Virus stocks were prepared approximately 1 month after acute infection of H9 cells by clarification of the tissue culture medium and storage of aliquots at −70° C. […] Each aliquot of virus stock used for infection was thawed only once. In some cases, infected H9 cells were shifted to Dulbecco's modified Eagle's medium 3-10 days before collection of virus in order to generate virus stocks in medium with low biotin content. Clinical isolates of HIV that had been passaged once in MT-2 cells were used to infect fresh MT-2 cells in RPMI medium. Three days after infection, cells were pelleted, resuspended and culture continued in Dulbecco's modified Eagle's medium as above. Virus stocks of clinical isolates were prepaid 10-15 days after infection when cytopathic effects were apparent in the culture.

[2] = Human immunodeficiency virus 1, MT2, 24 h, Table 1d, upper part, read-out: IC90
[3] = Human immunodeficiency virus 1, MT2, HIV RNA assay, HIV-1 infected MT-2 cells, class symbols, read-out: IC90
[4] = Human immunodeficiency virus 1, MT2, Table 1e, read-out: IC90

`O=C1N(CC2CC2)C(Cc2ccccc2)C(OCc2ccccc2)C(OCc2ccccc2)C(Cc2ccccc2)N1CC1CC1` (stereo not drawn) [Example 7AG] was tested. Which Ki [1] did it give?
The Ki was greater than 1 µM.

With `Nc1ccn([C@H]2CC[C@@H](CO)O2)c(=O)n1` [dideoxycytidine, reference compound] as the compound, how does the IC90 (HIV-1 (RF) in MT-2 cells; Human immunodeficiency virus 1, MT2, virus inoculum standardisation, HIV-1 (RF), MT-2 cells, read-out: IC50 value (concentration of compound required to reduce the HIV RNA level by 90%)) read?
The IC90 was 0.2 mg/L (≈ 0.947 µM).

With `O=C1N(Cc2ccc3ccccc3c2)C(Cc2ccccc2)C2OCOC2C(Cc2ccccc2)N1Cc1ccc2ccccc2c1` (stereo not drawn) [Example 7Q] as the compound, how does the IC90 (HIV-1 (RF) in MT-2 cells; [2]) read?
The IC90 was 10 to 100 mg/L (≈ 16.2 to 162 µM).

With `C=CCN1C(=O)N(CC=C)C(Cc2ccccc2)C2OCSCOC2C1Cc1ccccc1` (stereo not drawn) [Example 7B] as the compound, how does the IC90 (HIV-1 (RF) in MT-2 cells; [2]) read?
The IC90 was 10 to 100 mg/L (≈ 21.5 to 215 µM).

With `O=C1N(Cc2ccc3ccccc3n2)C(Cc2ccccc2)C(O)C(O)C(Cc2ccccc2)N1Cc1ccc2ccccc2n1` (stereo not drawn) [Example 6K] as the compound, how does the IC90 (HIV-1 (RF) in MT-2 cells; [3]) read?
Its IC90 is greater than 100 mg/L.

With `CN(C)CCNC(=O)c1cccc(CN2C(=O)N(Cc3cccc(C(=O)NCCN(C)C)c3)C(Cc3ccccc3)C(O)C(O)C2Cc2ccccc2)c1` (stereo not drawn) [15XW] as the compound, how does the IC90 (HIV-1 (RF) in MT-2 cells; Table 2d, HIV RNA assay) read?
The IC90 was “++ (++=10 to 100 μg/mL)”.

`O=C1N(Cc2ccc(C(F)(F)F)cc2)C(Cc2ccccc2)C(O)C(O)C(Cc2ccccc2)N1Cc1ccc(C(F)(F)F)cc1` (stereo not drawn) [Example 6W] was tested. Which IC90 (HIV-1 (RF) in MT-2 cells; [3]) did it give?
Its IC90 is greater than 100 mg/L.

`O=C1N(Cc2ccc3ccccc3c2)C(C(F)Cc2ccccc2)[C@@H](O)[C@@H](Cc2ccccc2)N1Cc1ccc2ccccc2c1` (stereo partly drawn) [Example 7X] was tested. Which IC90 (HIV-1 (RF) in MT-2 cells; [4]) did it give?
Its IC90 is greater than 100 mg/L.

With `O=C1N(Cc2cccc(I)c2)C(Cc2ccccc2)C(O)C(O)C(Cc2ccccc2)N1Cc1ccc2[nH]nnc2c1` (stereo not drawn) [15DT] as the compound, how does the IC90 (HIV-1 (RF) in MT-2 cells; Table 2d, HIV RNA assay) read?
The IC90 was “+++ (+++=<10 μg/mL)”.

Which IC90 (HIV-1 (RF) in MT-2 cells; Table 1e) does the source give for `NC(=NO)c1cccc(CN2C(=O)N(Cc3cccc(C(N)=NO)c3)C(Cc3ccccc3)C(O)C2CCc2ccccc2)c1` (stereo not drawn) [Example 8AO] here?
The IC90 was “+ (+=>100 μg/mL)”.

How did the IC90 (HIV-1 (RF) in MT-2 cells; [3]) turn out when `O=C1N(Cc2cccc(C(F)(F)F)c2)C(Cc2ccccc2)C(O)C(O)C(Cc2ccccc2)N1Cc1cccc(C(F)(F)F)c1` (stereo not drawn) [Example 6Y] was run?
The IC90 was greater than 100 mg/L.

`O=C1N(Cc2ccc3ccccc3c2)C(Cc2ccccc2)C(O)C(C(Br)Cc2ccccc2)N1Cc1ccc2ccccc2c1` (stereo not drawn) [Example 8R] was tested. Which IC90 (HIV-1 (RF) in MT-2 cells; [4]) did it give?
The IC90 was greater than 50 mg/L.

Which IC90 (HIV-1 (RF) in MT-2 cells; Human immunodeficiency virus 1, MT2, 48 h, Table 2d, class symbols, read-out: IC90) does the source give for `CNC(=O)OCCCCCCN1C(=O)N(CCCCCCOC(C)=O)C(Cc2ccccc2)C(O)C(O)C1Cc1ccccc1` (stereo not drawn) [Example 12X] here?
Its IC90 is less than 10 mg/L.

How did the IC90 (HIV-1 (RF) in MT-2 cells; [4]) turn out when `O=C1N(Cc2ccc3ccccc3c2)C(CCc2ccccc2)[C@@H](O)[C@@H](Cc2ccccc2)N1Cc1ccc2ccccc2c1` (stereo partly drawn) [Example 8G] was run?
Its IC90 is greater than 50 mg/L.

With `CC(=NO)c1cccc(CN2C(=O)N(Cc3cccc(C(C)=NO)c3)C(Cc3ccccc3)C(O)C(O)C2Cc2ccccc2)c1` (stereo not drawn) [Example 15XS] as the compound, how does the IC90 (HIV-1 (RF) in MT-2 cells; Human immunodeficiency virus 1, MT2, 48 h, Table 2d, HIV RNA assay, read-out: IC90) read?
Its IC90 is less than 10 mg/L.

How did the IC90 (HIV-1 (RF) in MT-2 cells; Table 1e) turn out when `NC(=NO)c1cccc(CN2C(=O)N(Cc3cccc(C(N)=NO)c3)C(Cc3ccccc3)C(O)C2CCc2ccccc2)c1` (stereo not drawn) [Example 8AF] was run?
Its IC90 is “+++ (+++=<10 μg/mL)”.

Which IC90 (HIV-1 (RF) in MT-2 cells; [4]) does the source give for `COC(=O)c1cccc(CN2C(=O)N(Cc3cccc(C(=O)OC)c3)[C@H](Cc3ccccc3)[C@H](O)[C@H]2CCc2ccccc2)c1` [Example 8Y] here?
Its IC90 is 10 to 100 mg/L (≈ 16.5 to 165 µM).

Which IC90 (HIV-1 (RF) in MT-2 cells; [2]) does the source give for `O=C1N(CC2CC2)C(Cc2ccccc2)C2OCOC2C(Cc2ccccc2)N1CC1CC1` (stereo not drawn) [Example 7H] here?
Its IC90 is 10 to 100 mg/L (≈ 22.4 to 224 µM).
